What all share (assay type): cell-based
Test [1] has as its system Staphylococcus aureus OC4172. The test is described as follows: In vitro antibacterial activity (MIC), microdilution broth method, strain A. The following applies: cation adjusted Mueller-Hinton broth, 35° C., 16-20 hours. How it is done:
(§1) Minimal inhibitory concentration (MIC) is an indicator of in vitro antibacterial activity. […] The in vitro antimicrobial activity of representative compounds of the present invention was determined by the microdilution broth method following the test method from the National Committee for Clinical Laboratory Standards (NCCLS). This method is described in the NCCLS Document M7-A4, Vol. 17, No. 2, “Methods for Dilution Antimicrobial Susceptibility Test for Bacteria that Grow Aerobically—Fourth Edition”, which is incorporated herein by reference.
(§2) In this method two-fold serial dilutions of drug in cation adjusted Mueller-Hinton broth were added to wells in microdilution trays. The test organisms were prepared by adjusting the turbidity of actively growing broth cultures so that the final concentration of test organism after it is added to the wells was approximately 5×10^4 CFU/well. Following inoculation of the microdilution trays, the trays were incubated at 35° C. for 16-20 hours and then read. The amount of growth in the wells containing the test compound was compared with the amount of growth in the growth-control wells (no test compound) used in each tray.
(§3) Representative compounds of the present invention were tested against a variety of pathogenic bacteria with results as listed in Table 3, below.

The subject of test [2] is strain B, fluoroquinolone-resistant clinical isolate of Streptococcus pneumoniae. Briefly: In vitro antibacterial activity (MIC), microdilution broth method, strain B. The conditions noted are these: read-out: MIC (μg/mL) B. How it is done: as §1, §2, §3
On the technique in general: Broth dilution looks for growth in wells or tubes with falling amounts of substance.

Test [3] deals with strain C, fluoroquinolone-resistant clinical isolate of Streptococcus pneumoniae. The test is described as follows: In vitro antibacterial activity (MIC), microdilution broth method, strain C. The conditions noted are these: read-out: MIC (μg/mL) C. As for the experimental part:
as §1, §2, §3

For test [4], the system named is Streptococcus pneumoniae ATCC 49619. Briefly: In vitro antibacterial activity (MIC), microdilution broth method, strain E. The conditions noted are these: ATCC49619, 35° C., 16-20 hours. As for the experimental part:
as §1, §2, §3

For test [5], the system named is strain D, fluoroquinolone-resistant clinical isolate of Streptococcus pneumoniae. Briefly: In vitro antibacterial activity (MIC), microdilution broth method, strain D. The following applies: read-out: MIC (μg/mL) D. As for the experimental part: as §1, §2, §3

Molecules are shown by their SMILES. Converted amounts (≈) assume the structure as drawn.

For the compound `COc1c(C2=C[C@H]3CNCCN3C2)c(F)cc2c(=O)c(C(=O)O)cn(C3CC3)c12` [Compound 32, 1-Cyclopropyl-6-fluoro-7-(1,2,3,4,6,8a-hexahydro-pyrrolo[1,2S-a]pyrazin-7-yl)-8-methoxy-4-oxo-1,4-dihydro-quinoline-3-carboxylic acid], the MIC was 0.25 µg/mL (≈ 0.626 µM) in test [1]; 16 µg/mL (≈ 40.1 µM) in test [2]; greater than 16 µg/mL in test [3]; 2 µg/mL (≈ 5.01 µM) in test [4]; 16 µg/mL (≈ 40.1 µM) in test [5].

`C[C@H]1COc2c(C3=C[C@H]4CNCCN4C3)c(F)cc3c(=O)c(C(=O)O)cn1c23` [Compound 33, 8-Fluoro-9-(1,2,3,4,6,8a-hexahydro-pyrrolo[12-a]pyrazin-7-yl)-3S-methyl-6-oxo-2,3-dihydro-6H-1-oxa-3a-aza-phenalene-5-carboxylic acid]: the MIC is 0.25 µg/mL (≈ 0.649 µM) in test [1]; greater than 16 µg/mL in test [2]; greater than 16 µg/mL in test [3]; 2 µg/mL (≈ 5.19 µM) in test [4]; greater than 16 µg/mL in test [5].

As for `COc1c(-c2cc3n(c2)CCNC3)c(F)cc2c(=O)c(C(=O)O)cn(C3CC3)c12` [Compound 34, 1-Cyclopropyl-6-fluoro-8-methoxy-4-oxo-7-(1,2,3,4-tetrahydro-pyrrolo[1,2-a]pyrazin-7-yl)-1,4-dihydro-quinoline-3-carboxylic acid], the MIC in test [1] came out at 0.03 µg/mL (≈ 0.0755 µM); in test [2], 1 µg/mL (≈ 2.52 µM); in test [3], 1 µg/mL (≈ 2.52 µM); in test [4], 0.25 µg/mL (≈ 0.629 µM); in test [5], 1 µg/mL (≈ 2.52 µM).

With `C[C@H]1COc2c(-c3cc4n(c3)CCNC4)c(F)cc3c(=O)c(C(=O)O)cn1c23` [Compound 35, 8-Fluoro-3S-methyl-6-oxo-9-(1,2,3,4-tetrahydro-pyrrolo[1,2-a]pyrazin-7-yl)-2,3-dihydro-6H-1-oxa-3a-aza-phenalene-5-carboxylic acid], the MIC in test [1] is 0.5 µg/mL (≈ 1.3 µM); in test [2] it was greater than 16 µg/mL; in test [3] it was greater than 16 µg/mL; in test [4], 2 µg/mL (≈ 5.22 µM); in test [5], greater than 16 µg/mL.

(Values after patent US20090270379A1, “QUINOLONE DERIVATIVES USEFUL AS ANTIBACTERIAL AGENTS” (priority 2008, published 2009).)
